Experimental data: patent US20080146606A1, “NOVEL COMPOUNDS” (priority 2006, published 2008)

Tested on: LPS-induced TNFα production
Test: LPS-induced TNFα production in rats
Format: in vivo
Conditions: Rattus norvegicus, po, pretreated orally
Experimental: Male Lewis rats (180-200 g) from Charles River Breeding Laboratories (Portage) ACUC Protocol#05051 were pretreated orally with compound or vehicle. After a determined pretreatment time, the rats were given LPS (lipopolysaccharide from Escherichia coli Serotype 055-B5, Sigma Chemical Co., St Louis, Mo.) 30 μg/rat in 0.5 ml saline, intraperitoneally. The rats were euthanized by CO2 inhalation 90 minutes after the LPS injection and blood samples were collected by cardiac puncture, transferred into heparinized tubes and stored on ice. The blood samples were centrifuged at 2000 rpm for 10 minutes and the plasma collected for analysis by specific ELISA for TNFα levels.
The plasma samples were assayed for TNFα according to manufactures specifications. TNFα levels were expressed as pg/ml. Elisa kits were purchased from R&D Systems Inc. (Rat TNFα Quantikine Kit Catalog#RTA00).

O=S(=O)(NCCO)c1ccc(-c2ccnc3[nH]c(C4CC4)cc23)cc1 [Example 145a, 4-(2-Cyclopropyl-1H-pyrrolo[2,3-b]pyridin-4-yl)-N-(2-hydroxyethyl)-benzenesulfonamide]
ED50: < 20 mg/kg
